This note sets out measurements from article PMC12663368 (Nature Communications, 2025).

Structures are written as SMILES.

In this test the test system is Mpro-WT and Mpro-Δ23G 1:1 mixture. The settings on record: hamster, in vivo.

As to `CC(C)(C)[C@H](NC(=O)C(F)(F)F)C(=O)N1C[C@H]2[C@@H]([C@H]1C(=O)N[C@H](C#N)C[C@@H]1CCNC1=O)C2(C)C` [nirmatrelvir], the Mpro-WT dominance was greater than 97%.
